{"source": "paper PMC5879690", "about": "(Proceedings of the National Academy of Sciences of the …, 2018)", "molecular_target": "indoleamine 2,3-dioxygenase (IDO1) (Homo sapiens, UniProt P14902)", "sequence (P14902 whole entry)": "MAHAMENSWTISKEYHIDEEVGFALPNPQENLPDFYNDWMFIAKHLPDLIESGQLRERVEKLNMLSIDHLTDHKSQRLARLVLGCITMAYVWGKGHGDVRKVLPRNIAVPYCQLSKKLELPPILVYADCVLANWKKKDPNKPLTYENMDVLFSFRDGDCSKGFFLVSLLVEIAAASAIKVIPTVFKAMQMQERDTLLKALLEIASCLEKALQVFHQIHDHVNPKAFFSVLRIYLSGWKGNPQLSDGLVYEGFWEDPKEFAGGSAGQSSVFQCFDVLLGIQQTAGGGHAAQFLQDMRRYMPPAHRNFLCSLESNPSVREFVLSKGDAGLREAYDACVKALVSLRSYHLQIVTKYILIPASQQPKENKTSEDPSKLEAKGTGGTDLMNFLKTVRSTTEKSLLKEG", "assay": "enzyme activity assay, N-formylkynurenine production", "type": "biochemical", "data": [{"smiles": "N[C@H](Cc1c[nH]c2ccccc12)C(=O)O", "note": "[D-tryptophan]", "values": [{"measurement": "enzyme activity assay, N-formylkynurenine production", "value": "D-tryptophan was used as the substrate, which unlike L-tryptophan, does not cause substrate inhibition"}]}]}
